The target of assay [1] is T1, ATP-sensitive potassium channels in vascular smooth muscles (Rattus norvegicus, UniProt Q63563).
T1 construct: The aorta was cut into about 3-5 mm arterial rings and the vascular endothelium was scraped off; from tissue; host or cells: endothelium-removed aortic rings of male Wistar rats
The assay is described as follows: Association kinetics of [^3H]P1075 binding in aortic rings. Set-up: species or system Wistar rat. The settings on record: 37° C.; drug M: Compound 1 10^−4, Glibencamide 10^−5, ATP 10^−2, ADP 10^−3, UDP 5 × 10^−5, GTP 10^−3, Ade 10^−3; control 4.36 ± 0.45; means ± SD, n = 4~10. An excerpt:
(§1) Biological activity experiment 4. Allosteric regulation of novel compounds on ATP-sensitive potassium channels in vascular smooth muscles.
(§2) To study the allosteric regulation of compound 1 on ATP-sensitive potassium channels in vascular smooth muscles, the radio-labled-ligand was used in the biological activity experiment 4.
(§3) 1. The allosteric regulation of compound 1 on the binding sites for the selective KATP blocker glibenclamide in vascular smooth muscles was studied as follows: After decapitated, the male Wistar rat (340±20 g) was immediately incised open the thoracic cavity. The aorta was dissected and immersed in the 4° C. buffer containing 10 mM HEPES to wash off the blood, then carefully extirpated the fat, peripheral connective tissues and thrombus. The aorta was cut into about 3-5 mm arterial rings and the vascular endothelium was scraped off with wet tampon. The arterial rings were blotted, weighted and transferred into the tubes containing proper amount of ice colded physiological saline buffer. In the association kinetics experiment, the arterial circles in the tubes were incubated with, compound 1(10^−4M), pinacidil(10^−4M), ATP(10^−2M), ADP(10^−3M), Ade(10^−3M), ADP(5×10^−5M) and equal volume of buffer respectively for 10 min in 25° C. water bath, and then added [^3H]-glibenclamide(3 nM). At 5,10,15,20,30,60,90 and 120 min after incubation, 9 mL ice colded Tris buffer (50 mM) was added to terminate the reaction. After washing off the free and bound [^3H]-glibenclamide, the aorta was blotted, transferred to a scintillator, added 50 uL 30% H2O2 and reacted for 2 h at 80° C. After cooling, 2.5 mL ethyl glycol and 5 mL 1% B-BPD xylene were added in sequence, kept stationary for 8 h and measured under a scintillometer for cpm value. The resulting data were fit into a regression line with In[BEQ/(BEQ-Bt)]vs.t and the parameters for association kinetics were obtained. In the disassociation kinetics experiments, the aorta treated as described above and [^3H]-glibenclamide were incubated for 60 min at 25° C., and then 30 uM glibenclamide was added. 0,5,15,30,60,90 and 120 min later, the cpm values for the complex of [^3H]-glibenclamide and KATP were measured. The resulting data were fit into a regression line with In(B/BEQ)]vs.t and the parameters for disassociation kinetics were obtained. 2. The allosteric regulation of compound 1 on the binding sites for the selective KATP activator P1075 in vascular smooth muscles was studied with the method as described above, but some conditions should be changed as follows: the incubation temperature was 37° C. instead of 25° C.;P1075 was used instead of glibenclamide; In the association kinetics experiments, the time points for sampling were 5,10,15,20,30,45,60 and 90 min, while in the disassociation kinetics experiments, that were 1,3,5,10,20,30,45 and 60 min. Biological activity experiment 5. The effects of compound 1 on the specific binding of high selective activator [^3H]P1075 with ATP-sensitive potassium channels in vascular smooth muscles.

Assay [2] has as its target T1, ATP-sensitive potassium channels in vascular smooth muscles. The assay is described as follows: Association and dissociation kinetics of [^3H]glibenclamide binding in aortic rings. More on the design: species or system Wistar rat. The settings on record: drug M: compound 1 10^−4, pinacidil 10^−4, ATP 10^−2, ADP 10^−3, UDP 5 × 10^−3, Ade 10^−3; for Dissociation kinetics k2 of [^3H]glibenclamide binding / Association kinetics k1 of [^3H]glibenclamide binding / Association kinetics kobs of [^3H]glibenclamide binding / Association kinetics kA of [^3H]glibenclamide binding: 25° C.; for Dissociation kinetics k2 of [^3H]glibenclamide binding: control 0.72 ± 0.11; for Dissociation kinetics Kd of [^3H]glibenclamide binding in presence of the drug: Kd of the radioligand, not of the drug, control 0.55 ± 0.14; for Association kinetics k1 of [^3H]glibenclamide binding / Association kinetics kobs of [^3H]glibenclamide binding / Association kinetics kA of [^3H]glibenclamide binding: [^3H]-glibenclamide 3 nM; for Association kinetics k1 of [^3H]glibenclamide binding: control 1.31 ± 0.14; for Association kinetics kobs of [^3H]glibenclamide binding: control 4.65 ± 0.37, means ± SD, n = 4~10; for Association kinetics kA of [^3H]glibenclamide binding: control 181.90 ± 46.90.
Source text: as §1, §2
as §3, with “In the association kinetics experiment, the arterial circles in the tubes were incubated with, compound 1(10^−4M), pinacidil(10^−4M), ATP(10^−2M), ADP(10^−3M), Ade(10^−3M), ADP(5×10^−5M) and equal volume of buffer respectively for 10 min in 25° C. water bath, and then added [^3H]-glibenclamide(3 nM).” left out

Another assay relates to SHRsp. The assay is described as follows: Prophylaxis and treatment of SHRsp cerebral apoplexy. Conditions: 40 mg · kg^−1d^−1 fed. It is filed as in vivo, rats. As to the method:
Biological activity experiment 8 the prophylaxis and treatment of cerebral apoplexy with compound 1 of formula Ia
The methods of biological activity experiments were carried out as follows: Desired concentration of compound 1 was prepared with distilled water, while desired concentration of nimodipine was prepared with market available Jinglongyu^T oil. 30 male and 30 female SHRsp (10 weeks old, 120-180 g) were purchased from the vascular disease research center of Academy of Military Medical Science. All SHRsp were divided randomly into five groups based on blood pressure, body weight and sex: control group (fed with equal amount of Jinglongyu^T oil), […], […], […], and 4.0 mg.kg^−1d^−1 nimodipine treated group. Each group contained 12 animals and 4-5 animals were fed in a cage. The feedstaff (containing 23-24% protein) was purchased from experimental animal center of Academy of Military Medical Science. The animals were fed with tap water containing 1% NaCl to accelerate the onset of cerebral apoplexy. 12 normal WKY rats (with the same age and sex with the above) were selected as control, and fed with tap water and the same feedstuff. When reached 11 weeks old, the animals were fed with drugs for experiments.

The target of assay [3] is T1, ATP-sensitive potassium channels in vascular smooth muscles. Briefly: Inhibition of specific binding of [^3H]P1075 in endothelium-removed rat aorta. Set-up: species or system Wistar rat. The settings on record: [^3H] P1075 5 nmol L^−1, 90 minutes at 37° C., endothelium-removed rat aorta.

The IC50 is the concentration that inhibits the measured activity by half.

The structures appear in SMILES notation. Marks after values point to notes of the source that are not given here.

T1 sequence (Q63563 1-1545 isoform Q63563-2): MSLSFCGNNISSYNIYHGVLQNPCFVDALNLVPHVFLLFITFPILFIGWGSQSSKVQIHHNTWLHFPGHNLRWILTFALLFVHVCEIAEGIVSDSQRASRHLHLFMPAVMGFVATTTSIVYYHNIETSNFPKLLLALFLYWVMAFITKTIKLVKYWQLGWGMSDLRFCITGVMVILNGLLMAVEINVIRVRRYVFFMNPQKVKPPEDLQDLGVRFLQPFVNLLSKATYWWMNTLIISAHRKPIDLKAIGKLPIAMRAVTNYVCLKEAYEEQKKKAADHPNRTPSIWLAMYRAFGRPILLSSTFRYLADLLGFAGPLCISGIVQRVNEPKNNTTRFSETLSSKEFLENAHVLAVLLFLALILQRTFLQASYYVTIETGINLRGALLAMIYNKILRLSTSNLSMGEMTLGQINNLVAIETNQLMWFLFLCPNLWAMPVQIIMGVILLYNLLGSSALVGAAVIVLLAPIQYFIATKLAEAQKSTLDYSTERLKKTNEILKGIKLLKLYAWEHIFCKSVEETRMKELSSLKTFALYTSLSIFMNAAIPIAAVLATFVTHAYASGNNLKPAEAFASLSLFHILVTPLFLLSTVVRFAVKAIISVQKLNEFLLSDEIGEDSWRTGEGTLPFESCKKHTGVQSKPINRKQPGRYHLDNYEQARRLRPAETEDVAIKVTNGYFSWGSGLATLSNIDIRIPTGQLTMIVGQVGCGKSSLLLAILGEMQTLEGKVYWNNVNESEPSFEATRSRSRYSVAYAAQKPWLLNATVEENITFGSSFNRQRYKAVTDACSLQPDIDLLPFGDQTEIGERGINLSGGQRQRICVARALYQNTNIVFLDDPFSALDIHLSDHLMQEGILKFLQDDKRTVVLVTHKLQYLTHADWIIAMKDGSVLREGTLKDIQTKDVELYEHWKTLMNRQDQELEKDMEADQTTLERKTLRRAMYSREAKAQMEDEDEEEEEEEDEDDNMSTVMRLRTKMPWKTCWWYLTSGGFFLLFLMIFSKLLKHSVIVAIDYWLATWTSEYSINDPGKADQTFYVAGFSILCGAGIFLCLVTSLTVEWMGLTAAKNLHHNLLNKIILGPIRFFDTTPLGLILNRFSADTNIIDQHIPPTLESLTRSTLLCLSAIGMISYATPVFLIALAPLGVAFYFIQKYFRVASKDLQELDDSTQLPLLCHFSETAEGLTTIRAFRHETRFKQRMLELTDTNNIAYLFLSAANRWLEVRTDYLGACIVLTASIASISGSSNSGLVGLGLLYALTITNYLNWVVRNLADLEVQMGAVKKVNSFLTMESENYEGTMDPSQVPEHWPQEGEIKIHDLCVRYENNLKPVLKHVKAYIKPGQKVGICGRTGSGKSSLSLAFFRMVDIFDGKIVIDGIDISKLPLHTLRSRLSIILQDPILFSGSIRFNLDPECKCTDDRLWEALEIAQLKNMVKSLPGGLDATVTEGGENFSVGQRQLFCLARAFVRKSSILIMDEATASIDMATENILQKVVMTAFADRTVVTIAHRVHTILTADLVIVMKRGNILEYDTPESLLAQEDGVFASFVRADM
T1 sequence (Q63664 whole entry partner): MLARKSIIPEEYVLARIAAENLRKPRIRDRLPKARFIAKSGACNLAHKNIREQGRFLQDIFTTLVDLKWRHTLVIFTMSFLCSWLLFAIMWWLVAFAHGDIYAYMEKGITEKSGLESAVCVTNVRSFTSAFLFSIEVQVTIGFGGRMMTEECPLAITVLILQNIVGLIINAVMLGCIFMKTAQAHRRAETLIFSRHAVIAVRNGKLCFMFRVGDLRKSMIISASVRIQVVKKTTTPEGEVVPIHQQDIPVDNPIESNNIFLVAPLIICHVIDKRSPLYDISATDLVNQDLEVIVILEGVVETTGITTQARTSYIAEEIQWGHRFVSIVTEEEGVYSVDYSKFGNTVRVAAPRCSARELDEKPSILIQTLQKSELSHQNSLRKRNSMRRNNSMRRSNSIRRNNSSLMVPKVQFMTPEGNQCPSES

Turning to `Nc1ncnc2c1ncn2[C@@H]1O[C@H](COP(=O)(O)OP(=O)(O)OP(=O)(O)O)[C@@H](O)[C@H]1O` [ATP, adenosine triphosphate], the “Association kinetics kobs of [^3H]P1075 binding” value in assay [1] is 2.85 ± 0.08 ×10^−2 nM^−1 · min^−1. For the same molecule, in assay [2], the “Dissociation kinetics k2 of [^3H]glibenclamide binding” value (“Dissociation kinetics k2” below) is on record as 0.42 ± 0.14 ×10^2 nM^−1 · min^−1, the “Dissociation kinetics Kd of [^3H]glibenclamide binding in presence of the drug” value (“Dissociation kinetics Kd” below) is reported as 0.17 ± 0.06 nM, the “Association kinetics k1 of [^3H]glibenclamide binding” value (“Association kinetics k1” below) is 2.42 ± 0.34 ×10^−2nM^−1 · min^−1 and the “Association kinetics kobs of [^3H]glibenclamide binding” value is reported as 7.69 ± 1.01 ×10^−2nM^−1 · min^−1. For the same molecule, in assay [2], the “Association kinetics kA of [^3H]glibenclamide binding” value (shortened to “Association kinetics kA”) was 590.2 ± 208.20 ×10^−2nM^−1 · min^−1.

`COCCOC(=O)C1=C(C)NC(C)=C(C(=O)OC(C)C)C1c1cccc([N+](=O)[O-])c1` (stereo not drawn) [Nimodipine, nimodipine, reference compound] displayed a Survival time with SHRsp (control 4.6 ± 3.8, means ± SD) of 11.1 ± 2.7 days. For the same molecule, the “Period needed for onset of cerebral apoplexy” value in the assay with SHRsp (control 48.3 ± 7.4, means ± SD) was 66.0 ± 14.8 days. Besides, the “Death rate of cerebral apoplexy” value in the assay with SHRsp (n 12, control 50.0) is listed as 9.1* %. Besides, the “Rate of cerebral apoplexy” value in the assay with SHRsp (n 12, control 83.3) is reported as 36.4* %.

Regarding `Nc1nc2c(ncn2[C@@H]2O[C@H](COP(=O)(O)OP(=O)(O)OP(=O)(O)O)[C@@H](O)[C@H]2O)c(=O)[nH]1` [GTP], in assay [1], the “Association kinetics kobs of [^3H]P1075 binding” value is recorded as 3.86 ± 0.19 ×10^−2 nM^−1 · min^−1.

Take `CCC(C)(C)N=C(NC#N)Nc1cccnc1` [P1075, reference compound]: the IC50 in assay [3] came out at 9.1 ± 1.3 nM.

As for `COc1ccc(Cl)cc1C(=O)NCCc1ccc(S(=O)(=O)NC(=O)NC2CCCCC2)cc1` [glibenclamide, reference compound], in assay [1], the “Association kinetics kobs of [^3H]P1075 binding” value is 3.12 ± 0.17 ×10^−2 nM^−1 · min^−1. The molecule further yielded an IC50 in assay [3] of 58900 ± 4600 nM. For the same molecule, the Ki in assay [3] (read-out: pKi for inhibition of specific binding of [^3H]P1075 (converted)) was 58900 nM.

Take `Nc1ncnc2c1ncn2[C@@H]1O[C@H](COP(=O)(O)OP(=O)(O)O)[C@@H](O)[C@H]1O` [ADP]: the “Association kinetics kobs of [^3H]P1075 binding” value in assay [1] is listed as 2.63 ± 0.48 ×10^−2 nM^−1 · min^−1. Also, in assay [2], the “Dissociation kinetics k2” value is on record as 0.94 ± 0.10 ×10^2 nM^−1 · min^−1, the “Dissociation kinetics Kd” value amounted to 2.09 ± 1.12 nM, the “Association kinetics k1” value is reported as 0.45 ± 0.24 ×10^−2nM^−1 · min^−1 and the “Association kinetics kobs of [^3H]glibenclamide binding” value is recorded as 2.28 ± 0.70 ×10^−2nM^−1 · min^−1. Moreover, in assay [2], the “Association kinetics kA” value was 47.80 ± 25.70 ×10^−2nM^−1 · min^−1.

As for `O=c1ccn([C@@H]2O[C@H](COP(=O)(O)OP(=O)(O)O)[C@@H](O)[C@H]2O)c(=O)[nH]1` [UDP], the “Association kinetics kobs of [^3H]P1075 binding” value in assay [1] is reported as 5.53 ± 0.51 ×10^−2 nM^−1 · min^−1. In addition, in assay [2], the “Dissociation kinetics k2” value was 0.80 ± 0.22 ×10^2 nM^−1 · min^−1, the “Dissociation kinetics Kd” value was 0.70 ± 0.24 nM, the “Association kinetics k1” value is 1.15 ± 0.23 ×10^−2nM^−1 · min^−1 and the “Association kinetics kobs of [^3H]glibenclamide binding” value is reported as 4.26 ± 0.65 ×10^−2nM^−1 · min^−1. Also, in assay [2], the “Association kinetics kA” value is listed as 143.50 ± 49.00 ×10^−2nM^−1 · min^−1.

(Values after US7560473B2 (Institute of Pharmacology and Toxicology Academy of …, priority 2001, dated 2009).)
